Data reported in US9624235B2, “Compounds and methods for inhibition of AP endonuclease-1/redox factor-1 (HAPE1) activity” (University of Pittsburgh—Of the Commonwealth System of …, priority 2012, dated 2017).
Like-named read-outs stand apart in the source and are kept apart here.

Legend:
APE-1 [1] = target: T1, APE-1 (Homo sapiens (Human), UniProt P27695); assay: Molecular beacon assay for APE-1 endonuclease inhibition; assay type: biochemical
Source text: Screening Assays for APE1 Inhibition—The initial screen was designed to look at the effect of potential inhibitors on APE1 repair kinetics. The approach can be used as a high throughput screen by choosing a specific timepoint to monitor. The screen utilizes a molecular beacon with a tetrahydrofuran (THF) abasic site within the stem region of a DNA hairpin that has a fluorophore on the 5′-terminus and a quencher on the 3′-terminus (FIG. 2a). […] An example of the molecular beacon screen and the excision assay are shown in FIGS. 2b,c and 2d, respectively.
Molecular Beacon Assay for Screening of APE-1 Inhibitors. A fluorescence-based molecular beacon assay to measure APE-1 protein activity and inhibition was performed as described previously with some modifications. Tang et al. Neuro Oncol. 13, 471-486 (2011) APE-1 (2 nM) in 10 mM HEPES (pH 7.8) 0.5 mM MgCl, 100 mM NaCl, 100 mM KCl, 0.0005% (w/v) BSA, was incubated with 20 nM 5′-(F)-CGACTXTTGAATTGACACGCCATGTCGATCAATTCAATAGTCG-(D)-3′ [X=tetrahydrofuran (THF) abasic site modification; F, 6-carboxyfluorescein (6-FAM); and D, DABCYL] that forms a hairpin with a 15 base pair stem and a 13 base loop. The THF modification is a known substrate for APE-1 excision. APE-1 mediated cleavage of the phosphodiester backbone at the THF-abasic site led to release of the 5′ 6-FAM (fluorophore) containing pentanucleotide, disrupting the Förster Resonance Energy Transfer (FRET) mediated quenching of the 6-FAM by DABCYL in the native hairpin oligomer. Since the signal was generated by continuous liberation of the fluorophore-labeled excision fragment, progress of this reaction could be monitored in real-time using a Cary Eclipse fluorescence spectrometer (Varian, Palo Alto, Calif.) or a Synergy H1 multi-well plate reader (BioTek, Winooski, Vt.). Reactions were optimized to yield ˜90% substrate turnover in 10 min, and fluorescence intensities measured every 12 s at 495 nm excitation and 520 nm emission. Data from the first 1-3 min of the assays (linear phase) were used to determine rate of substrate turnover (V0). The Michaelis constant (KM) was deduced experimentally, by incubating 2 nM APE-1 protein with 2-500 nM hairpin DNA substrate and measuring V0 —the experimentally observed V0 were analyzed as a function of substrate concentration [S] via non-linear regression using Prism (v.4; GraphPad Software, Inc., La Jolla, Calif.) and the KM was calculated as per the algorithm in the software package. To assay inhibition, 2 nM APE-1 protein was pre-incubated with 0.05-10.00 μM of the candidate inhibitors at 25° C. for 60 min, before initiating the excision assay by addition of hairpin DNA substrate. V0 was calculated at various concentrations of inhibitors and represented as inverse function of increasing inhibitor concentration [I]. […] All assays were carried out in three independent sets to obtain mean data and standard error of mean.
Screening for APE-1 Inhibitors. […] In this assay, the DNA hairpin substrate has a 6-FAM fluorophore on the 5′-terminus, a DABACYL fluorescence quencher on the 3′-terminus and a THF abasic site located 6 base pairs from the 5′-terminus in the stem region (FIG. 6). APE-1 activity is monitored as an increase in fluorescence due to the release of the 5′-(6-FAM)-GCACT fragment as a function of time. […] In this assay, substrate turnover was calculated from relative intensities of cleaved vs. intact oligomers and correlated with inhibitor concentration.

APE-1 [2] = target: T1, APE-1; assay: Fluorescence binding of 4 to APE-1 protein; conditions: 1 μM APE-1, fluorescence increase
Method: Fluorescence and UV Spectrometry Binding Studies. The fluorescence spectra were measured at room temperature on a Cary Eclipse fluorescence spectrometer (Varian, Palo Alto, Calif.). The fluorescence properties of 1 and 4 were measured in 10 mM HEPES, 0.5 mM MgCl2, 100 mM KCl, 100 mM NaCl, 2% glycerol, in absence or presence of wild type (unmodified) hairpin DNA (5′-[…]-3′) or THF-modified hairpin DNA (5′-CGAXTTCGCAGGACCGAATTCG-3′) or APE-1 protein. A solution of 0.5 μM of either DNA sequence was titrated against 1-10 μM ethidium bromide (EtBr) to determine saturation of EtBr by fluorescence (530 nm excitation with 610 nm emission) and the subsequent displacement of EtBr (4 μM) by 1-20 μM 1 or 4 was also assayed. The APE protein-inhibitor binding fluorescence was assayed by titrating 0.1-20 μM of 4 against 1 μM of APE-1 protein.
Interaction of Inhibitors with APE-1 Protein. To establish whether there is a direct interaction between an inhibitor and APE-1, the fluorescence spectra of 4 was determined in the absence and presence of increasing amounts of the protein.

T98G cells = assay: Long term (10-day) CyQUANT cytotoxicity assay; assay type: cell-based, human
Method: Cytotoxic Effects of APE-1 Inhibitors on Cultured Human Glioblastoma (T98G) Cells. Human glioblastoma cells (T98G) were maintained in growth medium as described above. […] The cells were allowed to attach and grow for 24 h, and then treated with serial dilutions of the drug for 72 h. After treatment, viable cells were measured by an MTS assay using the CellTiter 96 AQueous kit (Promega) as per manufacturer's instructions. […] The cells were allowed to attach and grow for 24 h and treated with serial dilutions of the drug for 240 h. After treatment, viable cells were measured using the CyQUANT cell proliferation assay kit (Invitrogen) as per manufacturer's instructions.
Toxicity. It was assumed that inhibition of APE-1 activity would be lead to toxicity since genetic deletion of the protein is lethal to cells. […] The toxicities were also determined in combination with the DNA minor groove methylating agent, MeLex. MeLex efficiently and selectively generates N3-methyladenine, which is converted into an abasic site by a BER glycosylase and/or hydrolytic depurination. The T98G cell line is relatively resistant to DNA damaging anticancer agents due to expression of multiple drug resistance proteins and O^6-alkylguanine-DNA alkyltransferase. […] A goal of the development of APE-1 inhibitors is to determine if they can be used to enhance the activity of DNA alkylating agents.

leukemia cell lines = assay: NCI 60 cell line growth inhibition; assay type: cell-based
SK-MEL-5 melanoma cells = assay: Combination of APE1 inhibitor 4 with approved anticancer drugs, NCI60 cell line assay; assay type: cell-based; conditions: preliminary screen
Source text: FIG. 5. An example of the enhanced activity of vemurafenib in combination with APE1 inhibitor 4 in SK-MEL-5 melanoma cells. Matric controls are run in singlet on each matrix and compared to replicate (n=10) controls for vemurafenib and 4.
APE1 Inhibitor 4 Enhances the Toxicity of Anticancer Drugs in the NCl60 Cell Line Assay—In a preliminary screen using 10 randomly selected cell lines, the effect of APE1 inhibitor 4 on the growth of 20 recently approved non-genotoxic anticancer drugs was assayed.

T1 sequence (P27695 whole entry): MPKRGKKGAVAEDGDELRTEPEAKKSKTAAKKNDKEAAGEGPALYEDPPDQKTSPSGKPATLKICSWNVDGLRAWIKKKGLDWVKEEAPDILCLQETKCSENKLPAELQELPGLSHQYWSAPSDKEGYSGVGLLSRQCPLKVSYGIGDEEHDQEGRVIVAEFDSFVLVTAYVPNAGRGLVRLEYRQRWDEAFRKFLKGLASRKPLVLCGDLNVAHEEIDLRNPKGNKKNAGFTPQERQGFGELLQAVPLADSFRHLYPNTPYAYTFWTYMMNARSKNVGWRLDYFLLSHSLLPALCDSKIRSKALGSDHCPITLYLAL

**Q.** `CCn1c2ccccc2c2cc(/C=N/Nc3cc(C)nc4cc5c(cc34)OCO5)ccc21` [Compound 4] was tested. Which Ki (APE-1 [1]; molecular beacon assay, endonuclease activity, read-out: Ki APE-1 endonuclease inhibition) did it give?
**A.** Its Ki is 120 nM.

**Q.** And the Ki (APE-1 [1]; molecular beacon screen, read-out: Ki, inhibition curve FIG. 2(c))?
**A.** The Ki was 345 nM.

**Q.** What about the Kd (APE-1 [2]) of the same compound?
**A.** Its Kd is 6150 nM.

**Q.** What about the LD50 / toxicity (T98G cells; long term (clonogenic) assay, T98G) of the same compound?
**A.** The LD50 / toxicity was 190 nM.

**Q.** What about the LD10 concentration (T98G cells; long term assay) of the same compound?
**A.** Its LD10 concentration is 0.08 µM.

**Q.** And the GI50 (leukemia cell lines; 60 cell, 6 leukemia cell lines, read-out: GI50 overall average leukemia cell lines)?
**A.** Its GI50 is 1800 ± 2900 nM.

**Q.** And the GI50 (leukemia cell lines; Homo sapiens, HL-60 omitted, read-out: GI50 leukemia cell lines, HL-60 line omitted)?
**A.** The GI50 was 640 ± 400 nM.

**Q.** And the “effect in combination with Vemurafenib” value (SK-MEL-5 melanoma cells)?
**A.** Its value is “>additive”.
